Data as given in patent US6228602A, “Competitive apo-peroxidase assay” (Bayer Corporation, priority 1999, dated 2001).

Key:
[1] = Metal porphyrin study: metal porphyrin in water without apo-enzyme (Example IV); format: biochemical; conditions: HEMASTIX no lepidine/pH 7.5
Procedure: (§1) In this example, other metal porphyrins were tested for their ability to reactivate different types of apo-peroxidases. Metals such as Fe, Cu, Mg, Zn, Ni, Mn, Co and Pd were complexed to hematin and added to the peroxidase detecting agent. Metals such as Mn, Fe, Cu and Co and porphyrins other than hematin, i.e. deuteroporphyrin and coproporphyrin were also shown to provide the desired response.

apo-POD [2] = biological target: T1, apo-POD (Armoracia rusticana, UniProt P00433); experiment: Metal porphyrin study: reactivation of apo-peroxidase (Example IV); format: biochemical, horse radish; conditions: for % R @ 90 second read time on CLINITEK-200+, mean: 12 μM apo-POD, HEMASTIX no lepidine/pH 7.5
T1 construct: purchased Sigma Chemical Company, St. Louis, Mo
T1 sequence (P00433 31-353): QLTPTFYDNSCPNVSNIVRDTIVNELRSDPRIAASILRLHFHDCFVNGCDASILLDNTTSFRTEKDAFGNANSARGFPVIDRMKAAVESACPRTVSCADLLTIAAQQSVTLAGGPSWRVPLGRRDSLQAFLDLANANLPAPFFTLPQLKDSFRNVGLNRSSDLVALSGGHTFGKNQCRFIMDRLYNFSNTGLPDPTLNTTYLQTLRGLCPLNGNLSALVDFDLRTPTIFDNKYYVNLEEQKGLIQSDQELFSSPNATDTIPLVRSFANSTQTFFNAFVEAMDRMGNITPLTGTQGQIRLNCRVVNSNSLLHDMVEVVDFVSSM
Procedure: as §1

apo-Hb = biological target: T2, apo-Hb (Homo sapiens, UniProt P68871+P69905); experiment: Metal porphyrin study: reactivation of apo-hemoglobin (Example IV); format: biochemical; conditions: 12 μM apo-Hb, 12 μM metal porphyrin, HEMASTIX no lepidine/pH 7.5
T2 construct: made in house
Procedure: as §1
A 0.7% solution of hemoglobin was lowered to pH 1.5 and the resulting solution was ultrafiltered through a 10 KDa cutoff membrane followed by several changes of water. Filtered material was reconstituted into water. The apo-hemoglobin passed […]. […] It produced a HEMASTIX® result of +++++ indicating a high concentration of hemoglobin.

apo-POD [3] = biological target: T1, apo-POD; experiment: Detection limit study: peroxidase activity / apo-POD reactivation read with HEMASTIX reagent (Example I); format: biochemical, horse radish
Procedure: In this example apo-peroxidase is compared to hematin and hematin-antigen conjugates to determine the detectable concentrations and effects of conjugation and antigen molecular weight on apo-enzyme reactivations. Solutions containing combinations of apo-POD, Fe^+3 hematin and hematin conjugate were tested for peroxidase activity. Peroxidase activity was measured in urine using HEMASTIX® reagent as set out in Table 3. This reagent is similar to that set out in Table 1 but lacking the metal porphyrin conjugate, competitive binder and apo-peroxidase while containing lepidine as an activator.
A 10 μL portion of hematin (3.6 μM, 0.23 mg/dL in phosphate buffered saline) or a 10 μL hematin-BJP allotment (3.6 μM, 8.61 mg/dL in phosphate buffered saline) was mixed with 10 μL apo-POD (3.6 μM, 14.0 mg/dL in phosphate buffered saline) all in 980 μL of phosphate buffered saline and then diluted to the desired concentration with additional phosphate buffered saline. The solution was incubated for 1 minute at 40° C. or at room temperature. The response of HEMASTIX® reagent dipped into the test solution was measured on a CLINITEK™-200 reflectance instrument. The response of the reagent set out in Table 1 on the phosphate buffered solution alone was 65.2% reflectance at 1 minute.
Apo-horse radish peroxidase was obtained from Sigma Chemical Company of St. Louis, Mo. The phosphate buffered solution was prepared by adding 0.69 g monobasic sodium phosphate, 0.71 g of dibasic sodium phosphate and 0.45 g of sodium chloride to 100 mL of water.
The HEMASTIX® reagent referred to earlier with the addition of lepidine and at a lower pH when compared to the formula of Table 1 was applied to the strip in a two dip system of the following composition and used in Examples I to IV (Table 3).

apo-POD [4] = biological target: T1, apo-POD; experiment: as above; format: biochemical, horse radish; conditions: 1 minute @ 30° C., hematin, antigen-hematin or apo-POD alone (Cases A, B, E)
apo-POD [5] = biological target: T1, apo-POD; experiment: Interference study with peroxidase detecting dry reagent (Example III); format: biochemical, horse radish; conditions: hemoglobin/myoglobin: reagent without modification; ascorbate: system with ascorbate scavenger
Procedure: In this example, a peroxidase detecting dry reagent with resistance to 0.81 mg/dL hemoglobin (or myoglobin) and 25 mg/dL ascorbate and sufficient sensitivity to detect apo-peroxidase reactivation was used. […]
The reagent was tested by dipping it into solutions containing the interfering substance with and without Fe hematin. […]

T2 sequence (P69905 2-142 limits assumed): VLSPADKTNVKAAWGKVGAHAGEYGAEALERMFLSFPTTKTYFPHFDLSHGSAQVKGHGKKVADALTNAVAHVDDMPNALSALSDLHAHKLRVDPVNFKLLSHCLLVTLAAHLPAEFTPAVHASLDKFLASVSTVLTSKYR
T2 sequence (P68871 2-147 limits assumed): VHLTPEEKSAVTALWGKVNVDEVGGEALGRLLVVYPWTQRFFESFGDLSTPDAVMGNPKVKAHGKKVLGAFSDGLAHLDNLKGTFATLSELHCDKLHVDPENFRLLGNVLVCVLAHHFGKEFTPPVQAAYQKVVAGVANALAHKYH

Co deuteroporphyrin
% R @ 90 second read time on CLINITEK-200+, mean ([1]; 120 μM metal porphyrin): 71.5 % R
% R @ 90 second read time on CLINITEK-200+, mean (apo-POD [2]; 120 μM metal porphyrin): 74.1 % R

Fe coproporphyrin
% R @ 90 second read time on CLINITEK-200+, mean ([1]; 12 μM metal porphyrin): 69.7 % R
% R @ 90 second read time on CLINITEK-200+, mean (apo-POD [2]; 12 μM metal porphyrin): 56.4 % R
% R @ 90 second read time on CLINITEK-200+, mean (apo-Hb): 52.1 % R

Mn deuteroporphyrin
% R @ 90 second read time on CLINITEK-200+, mean ([1]; 120 μM metal porphyrin): 66.4 % R
% R @ 90 second read time on CLINITEK-200+, mean (apo-POD [2]; 120 μM metal porphyrin): 48.2 % R
response / activity with apo-peroxidase (in words) (apo-POD [2]; metal porphyrin study): responses similar to those obtained for Fe

Ni deuteroporphyrin
% R @ 90 second read time on CLINITEK-200+, mean ([1]; 120 μM metal porphyrin): 75.5 % R
% R @ 90 second read time on CLINITEK-200+, mean (apo-POD [2]; 120 μM metal porphyrin): 76.1 % R

Pb deuteroporphyrin
% R @ 90 second read time on CLINITEK-200+, mean ([1]; 120 μM metal porphyrin): 72.1 % R
% R @ 90 second read time on CLINITEK-200+, mean (apo-POD [2]; 120 μM metal porphyrin): 73.4 % R

apo-POD: Apo-horse radish peroxidase obtained from Sigma Chemical Company
peroxidase activity (in words) (apo-POD [3]; 3.6 nM, without partner): no activity by itself
time to complete reactivation (apo-POD [3]; 20-40° C.): 1 min
Mean % Reflectance @ 660 nm (apo-POD [4]; 3.6 nM, antigen IgG): 62.3%
Mean % Reflectance @ 660 nm (apo-POD [4]; (3.6 nM; antigen Sulfmethazine)): 61.2%
Mean % Reflectance @ 660 nm (apo-POD [4]; (3.6 mM; antigen BJP)): 64.1%

hemoglobin: interfering substance, 0.81 mg/dL
interference with peroxidase detecting reagent (in words) (apo-POD [5]): causes a false positive response

B1: myoglobin: interfering substance, 0.81 mg/dL (protein, UniProt P02144 2-154, looked up)
Myoglobin: GLSDGEWQLVLNVWGKVEADIPGHGQEVLIRLFKGHPETLEKFDKFKHLKSEDEMKASEDLKKHGATVLTALGGILKKKGHHEAEIKPLAQSHATKHKIPVKYLEFISECIIQVLQSKHPGDFGADAQGAMNKALELFRKDMASNYKELGFQG
interference with peroxidase detecting reagent (in words) (apo-POD [5]): causes a false positive response
